“And” between values parts separate entries of the source, which are not always exact repeats. Equal entries are not always repeated. One block for each molecule: values may come before it. No end group written: not given here.
Assays:
rats = assay: intestine motility test (activated charcoal transit); format: in vivo; details: for intestinal transit in relation to RS group: product 30 minutes before charcoal, H1, H2 8.5 g/Kg, P+ (LW) 0.8 g/Kg, L 6.5 g/Kg, loperamide 2 mg/Kg p.o., read 20 minutes after charcoal
Procedure: Intestine motility was evaluated in rats as in Example 7. The groups were coincident (n=7) except of the omission of R group and that only P^+ (LW 0.8 g/Kg) was tested. The control group included rats treated with loperamide (Lop) at a dose of 2 mg/Kg, and rats treated with the vehicle (water) and with non-hydrolysed cow milk (L group). Loperamide is an anti-diarrhoeic drug that delays intestinal transit and it acts as a positive control in this experiment.
After 30 minutes of the administration of the products under study (P+, L, Lop, H1, H2, water) intestine transit was determined by administering 1 ml of a suspension at 1 % w/v of activated charcoal (Sigma-Aldrich®) in arabic gum (Acofar®, 5 %).
20 minutes later, animals were sacrificed by exsanguination and small intestine was extracted (from pilor to ileocecal). Small intestine was longitudinally disposed over a clean surface. Intestinal distance of charcoal was measured as well as the total intestine length. Results for each animal were expressed as distance of charcoal in relation to intestine length, in percentage form.
Statistical analysis was performed by PASW®Statistics 18 software. Global comparative analysis between groups was performed with Kruskal-Wallis test and further with the non-parametric U test of Mann-Whitney. It was stablished as meaningful level a p value of p<0.05.

[1] = biological target: T1, recombinant human neprilysin (rhNeprilysin) (Homo sapiens, UniProt P08473); assay: neprilysin inhibition, fluorogenic enzymatic (FRET) assay; format: biochemical; details: for IC50: pure substance, 37 °C
T1 construct: purchased R&D Systems, Inc
T1 sequence (P08473 whole entry): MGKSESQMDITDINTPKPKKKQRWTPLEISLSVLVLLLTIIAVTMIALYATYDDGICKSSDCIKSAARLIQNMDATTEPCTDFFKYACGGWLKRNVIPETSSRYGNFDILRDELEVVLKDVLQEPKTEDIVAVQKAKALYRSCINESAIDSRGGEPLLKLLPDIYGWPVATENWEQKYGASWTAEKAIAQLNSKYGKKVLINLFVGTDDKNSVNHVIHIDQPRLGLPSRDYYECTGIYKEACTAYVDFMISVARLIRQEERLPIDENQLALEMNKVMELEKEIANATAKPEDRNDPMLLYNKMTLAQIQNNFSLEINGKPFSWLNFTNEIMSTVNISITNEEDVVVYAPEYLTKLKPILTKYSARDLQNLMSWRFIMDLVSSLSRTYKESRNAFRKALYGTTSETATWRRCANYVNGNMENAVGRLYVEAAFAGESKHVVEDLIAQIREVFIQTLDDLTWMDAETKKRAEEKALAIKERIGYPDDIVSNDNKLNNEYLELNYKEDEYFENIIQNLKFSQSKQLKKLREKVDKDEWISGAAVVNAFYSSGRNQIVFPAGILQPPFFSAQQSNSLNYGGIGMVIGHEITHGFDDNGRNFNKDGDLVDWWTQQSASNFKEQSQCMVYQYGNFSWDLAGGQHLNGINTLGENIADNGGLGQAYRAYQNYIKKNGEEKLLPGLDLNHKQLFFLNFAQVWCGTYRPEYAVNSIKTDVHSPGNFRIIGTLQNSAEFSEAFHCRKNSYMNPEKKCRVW
Procedure: All samples are assayed in triplicate.

female Wistar rats = assay: castor oil induced acute diarrhoea in rats; format: in vivo; details: p.o. 1 h before castor oil, H1, H2 8.5 g/Kg
Procedure: The effect of the hydrolysates of the invention was tested in a model of induced acute diarrhoea. For this test, female Wistar rats were used (8 weeks old). Animals were provided with 7 weeks by Harlan (Barcelona, Spain) and they rested in the Animal Experimental Service of Facultad de […] de Barcelona (UB) under controlled temperature and humidity conditions with a light:dark cycle of 12 h:12 h with water and food ad libitum. The assay has been conducted under institutional guidelines for animal experimentation established by the Ethical Commitment of Animal Experimentation in the Universidad de Barcelona (CEEA-UB). […] Haematocrit was also determined as basal value before inducing diarrhoea. […] Although the weight was reduced during the assay, the loss was detected in all groups, and it is hypothesized due to the starving period. No differences among groups were detected in the haematocrit. […] The following variables were determined: number of defecations, type (consistency, colour, form, presence or absence of mucus), punctuation (0-4 according to a diarrhoea index), presence or absence of diarrhoea. There were also determined the diarrhoea index (ID), diarrhoea incidence, the percentage of diarrhoeic defecations, as well as the severity of diarrhoeic process. […] The percentage of diarrhoeic defecations (ID≥2) was also determined for each group. […]

[2] = cited from earlier work
[3] = biological target: Angiotensin Converting Enzymes (ACE); details: ACE inhibition; cited from earlier work
[4] = biological target: recombinant human neprilysin (human, UniProt P08473 53-750); assay: cell-based or functional assay
Sequence of recombinant human neprilysin (P08473 53-750 limits assumed): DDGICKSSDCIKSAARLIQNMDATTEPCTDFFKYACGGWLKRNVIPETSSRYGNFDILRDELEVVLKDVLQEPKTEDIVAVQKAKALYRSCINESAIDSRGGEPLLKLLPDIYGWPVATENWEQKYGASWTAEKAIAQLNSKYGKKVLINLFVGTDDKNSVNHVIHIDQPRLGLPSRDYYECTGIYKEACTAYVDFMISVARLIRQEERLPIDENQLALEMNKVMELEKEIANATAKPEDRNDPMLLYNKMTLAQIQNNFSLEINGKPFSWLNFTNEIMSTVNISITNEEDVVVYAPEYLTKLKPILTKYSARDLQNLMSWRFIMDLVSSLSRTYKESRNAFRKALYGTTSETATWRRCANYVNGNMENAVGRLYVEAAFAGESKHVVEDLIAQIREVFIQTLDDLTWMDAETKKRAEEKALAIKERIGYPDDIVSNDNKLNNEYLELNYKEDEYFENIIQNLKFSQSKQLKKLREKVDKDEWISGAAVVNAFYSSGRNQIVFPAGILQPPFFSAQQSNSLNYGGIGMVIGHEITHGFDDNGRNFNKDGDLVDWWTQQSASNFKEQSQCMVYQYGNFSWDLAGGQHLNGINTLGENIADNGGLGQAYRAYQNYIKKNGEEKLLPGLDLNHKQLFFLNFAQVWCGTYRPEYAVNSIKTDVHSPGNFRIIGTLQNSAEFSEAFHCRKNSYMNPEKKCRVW

- intestinal transit in relation to RS group (rats): does not modify intestinal transit
- IC50 [1]: 84.8 µM
- IC50 ([1]; dilutions in deionized water): 84.8 µM
Molecule: CC(C)C[C@H](N)C(=O)N[C@@H](Cc1c[nH]c2ccccc12)C(=O)O [LW]

Molecule: CN(C)C(=O)C(CCN1CCC(O)(c2ccc(Cl)cc2)CC1)(c1ccccc1)c1ccccc1 [loperamide]
- intestinal transit: distance of charcoal in relation to total small intestine length (D/L) (rats; 2 mg/Kg p.o., 30 minutes before charcoal, p<0.01 vs RS): 37.8 ± 3.49%
- inhibition of intestinal transit (rats; 2 mg/Kg p.o., versus RS group, p<0.01): 37%
- intestinal transit in relation to RS group (rats): delayed intestinal transit

Molecule: CC(=O)SCC(Cc1ccccc1)C(=O)NCC(=O)OCc1ccccc1 (centres unmarked) [racecadotril]
- severity of diarrhoeic process (AUC of the diarrhoea index) (female Wistar rats; LW 0.8 g/Kg, racecadotril 40 mg/Kg, L 6.5 g/Kg, 0-3 h and 0-8 h PI (FIG. 8), versus RD group): milder severity of diarrhoeic process than RD group
- percentage of diarrhoeic defecations (ID≥2) in relation to the total of defecations (female Wistar rats; R 40 mg/Kg, 0-3 h and 0-8 h PI (FIG. 9)): lower in both studied period
- water solubility [2]: poor water solubility

Molecule: IPP
- IC50 [3]: 5 to 9 µM

- inhibition at 1260 µM ([1]; peptide concentration 1.26 x10^-3 M, 40 minutes at 37 °C): 64.8%
- inhibition at 126 µM ([1]; peptide concentration 1.26 x10^-4 M, 40 minutes at 37 °C): 13.2%
- inhibition at 12.6 µM ([1]; peptide concentration 1.26 x10^-5 M, 40 minutes at 37 °C): 1.49%
- inhibition at 315 µM ([1]; peptide concentration 3.15 x10^-4 M, 40 minutes at 37 °C): 29.5%
- inhibition at 630 µM ([1]; peptide concentration 6.30 x10^-4 M, 40 minutes at 37 °C): 46.6%
- inhibition at 63 µM ([1]; peptide concentration 6.30 x10^-5 M, 40 minutes at 37 °C): 7.37%
- inhibition at 90 µM ([1]; peptide concentration 9.00 x10^-5 M, 40 minutes at 37 °C): 9.41%
Molecule: VLGPVRGPFP [SEQ ID NO: 1]

Molecule: VPP
- IC50 [3]: 5 to 9 µM

- IC50 of neprilysin inhibition (fluorogenic enzymatic assay) [4]: 713 µM
Molecule: VLGPVRGPFP [peptide of SEQ ID NO: 1 (VLGPVRGPFP)]

- IC50 of neprilysin inhibition (fluorogenic enzymatic assay, FRET substrate Mca-…[Dnp]-OH) [4]: 0.0269 mg/ml and 84.8 µM
Molecule: LW [peptide LW (dipeptide of formula (I) X1W, wherein X1 is leucine)]

Source: patent publication EP3212211B1, “MILK PROTEIN HYDROLYSATE FOR USE IN THE TREATMENT OF DIARRHOEA” (Laboratorios Ordesa, S.l., priority 2014, dated 2016)
